# Test results reported in EPA's ToxRefDB 2.
# What was measured:
# mouse [1] = settings: Carcinogenicity, b6c3f1, Oral, Gavage/Intubation, dose end: 2 year, group: systemic
# rat [2] = settings: Subchronic oral toxicity in rodents, fischer, Gavage/Intubation, dose end: 13 week, group: systemic
# mouse [3] = settings: Subchronic oral toxicity in rodents, b6c3f1, Gavage/Intubation, dose end: 13 week, group: systemic
# rat [4] = settings: Combined chronic toxicity/carcinogenicity; fischer; Oral; Gavage/Intubation; dose end: 2 year; group: systemic; systemic / in life observation / mortality / mortality + systemic / pathology microscopic / lung / foreign body + systemic / pathology …
# rat [5] = settings: Multigenerational reproductive toxicity study, sprague dawley, Oral, Feed, dose end: 2 generation, group: parental
# rat [6] = settings: Subchronic oral toxicity in rodents, fischer, Feed, dose end: 13 week, group: systemic
# dog = settings: Chronic toxicity; beagle; Oral; Feed; dose end: 52 week; group: systemic; systemic / organ weight / thyroid gland / absolute + systemic / organ weight / thyroid gland / relative to body weight + systemic / …
# [7] = systemic / pathology microscopic / brain / corpora amylacea + systemic / pathology microscopic / adrenal gland / adenoma + systemic / …
# [8] = systemic / in life observation / body weight / body weight
# [9] = systemic / in life observation / body weight / body weight + systemic / in life observation / clinical signs / labored respiration + …
# [10] = systemic / in life observation / body weight / body weight + systemic / in life observation / clinical signs / unsteady gait
# [11] = systemic / pathology microscopic / thyroid gland / hyperplasia + systemic / pathology microscopic / thyroid gland / hypertrophy + systemic…
# [12] = systemic / in life observation / body weight / body weight + systemic / in life observation / food consumption / food consumption + systemic…
# [13] = systemic / in life observation / body weight / body weight + systemic / pathology microscopic / thyroid gland / hyperplasia
smiles,measurement,setting,value
OCc1ccccc1 [Benzyl alcohol],NEL,mouse [1]; systemic / pathology microscopic / brain / corpora amylacea,100 mg/kg/day
same,LEL,mouse [1]; [7],200 mg/kg/day
same,LOAEL,mouse [1]; [7],> 200 mg/kg/day
same,NOAEL,mouse [1]; [7],≥ 200 mg/kg/day
same,LEL,rat [2]; [8],200 mg/kg/day
same,LOAEL,rat [2]; [8],400 mg/kg/day
same,NEL,rat [2]; [9],100 mg/kg/day
same,NOAEL,rat [2]; [9],200 mg/kg/day
same,LEL,mouse [3]; [8],400 mg/kg/day
same,LOAEL,mouse [3]; [10],800 mg/kg/day
same,NEL,mouse [3]; [10],200 mg/kg/day
same,NOAEL,mouse [3]; [10],400 mg/kg/day
same,LEL,rat [4],200 mg/kg/day
same,LOAEL,rat [4],> 400 mg/kg/day
same,NEL,rat [4],< 200 mg/kg/day
same,NOAEL,rat [4],≥ 400 mg/kg/day
S=C1NCCN1 [Ethylene thiourea],LOAEL,rat [5]; systemic / pathology microscopic / thyroid gland / hyperplasia + systemic / pathology microscopic / thyroid gland / hypertrophy,1.25 mg/kg/day
same,LEL,rat [5]; [11],1.25 mg/kg/day
same,NEL,rat [5]; [11],0.125 mg/kg/day
same,NOAEL,rat [5]; [11],0.125 mg/kg/day
same,LOAEL,rat [6]; [12],> 150 mg/kg/day
same,NOAEL,rat [6]; [12],≥ 150 mg/kg/day
same,LEL,rat [6]; [13],12 mg/kg/day
same,NEL,rat [6]; [13],< 12 mg/kg/day
same,LEL,dog,1.79 mg/kg/day
same,LOAEL,dog,1.79 mg/kg/day
same,NEL,dog,0.19 mg/kg/day
same,NOAEL,dog,0.19 mg/kg/day
